Measured values published in patent publication US20230104487A1, “11-(4-CHLOROPHENYL)-4-(2,3-DIHYDRO-1H-INDOLE-1-CARBONYL)-3,11-DIMETHYL-5,10,DIOXATRICYCLO[7.4.0.0,2,6,]TRIDECA-1,3,6,8-TETRAEN-13-ONE AND DERIVATIVES AS DESTABILIZER OF CRY1 FOR THE TREATMENT OF CIRCADIAN RHYTHM ASSOCIATED DISEASES AND DISORDERS” (KOC UNIVERSITESI, priority 2019, published 2023).

Assays:
BMAL1 = BMAL1 mRNA and protein, synchronized U2-OS cells; type: cell-based, human; conditions: 10 μM
Protocol: Cells were lysed in RIPA buffer (50 mM Tris, 150 mM NaCl, 1% Triton-X, 0.1% SDS) with fresh Protease inhibitor cocktail (PIC). After centrifugation at 13000 rpm for 15 minutes at 4° C., supernatant was used to determine the protein amount using Pierce Protein Assay (Thermo Scientific) according to the manufacturer's instruction. Mice liver samples were homogenized and lysed with Dounce homogenizer and RIPA buffer. After homogenization samples were incubated 10 minutes on ice. After centrifugation 13000 rpm 15 minutes at 4° C. supernatant was used for the whole cell lysate. Subcellular fractionation of liver samples: Liver samples were homogenized with cytosolic lysis buffer (10 mM HEPES pH 7.9, 10 mM KCl, 0.1 mM EDTA, 0.05% NP40, proteasome inhibitor) by pipetting 40 times with a cut tip. Then samples were incubated 10 minutes on ice and centrifuged for 3 minutes at 3000 rpm at 4° C. Supernatant was saved in a new tube, and pellet was processed for the nuclear fraction. […] ECL buffer system (Advansta WesternBright) was used to visualize HRP chemi-luminescence via BioRad ChemiDoc Touch visualizer.
QIAGEN RNeasy Mini Kit was used to isolate the mRNA. […] Quantity of RNA was determined by Nanodrop 2000 (Thermo Scientific). […] For quantitative real time PCR (qRT-PCR) analysis cDNAs were further diluted 5-fold (1:5). mRNA expression levels were calculated by qRT-PCR with the SYBR Green. […]

LUC = LUC degradation control in HEK293T; type: cell-based, firefly
Excerpt: To insert Cry1-Luc, Cry2-Luc constructs and only Luc into pcDNA4A-myc-his plasmid, coding sequence of mouse Cry1 and firefly Luciferase in pG5luc plasmid (Addgene) was amplified with primers having EcoRV-NotI and NotI-XhoI flanking sites for Crys and Luc, respectively. Product size was verified by visualizing in agarose gel and product was isolated from the gel by using NucleoSpin PCR and Gel purification kit (Macherey Nagel). pcDNA4A plasmid having Luc was double digested with NotI and XhoI and used as insert; Cry1 pcDNA4A-myc-his and Cry2 pcDNA4A-myc-his plasmids were double digested with NotI and XhoI FastDigest enzymes (Thermo Scientific) and used as host plasmids. Hosts were treated with FASTAP (Thermo Scientific) to prevent self-annealing. After gel isolation and cleaning inserts with Gel purification kit (Macherey Nagel) and destination vectors were ligated by using T4 DNA ligase (Thermo Scientific).
40 ng of Cry1-Luc, Cry2-Luc, mutant Cry1-Luc plasmids or 5 ng Luc plasmid were reverse transfected to 4×10^4 HEK293T cells on opaque 96-well plate with flat bottom via PEI transfection reagent. 24 h after transfection, cells were treated with molecules or solvent (DMSO). […] Luminescence readings were recorded every 10 min at 32° C. for 24 h. Half-life of protein was calculated via one-phase exponential decay fitting function in GraphPad Prism5 software. […]

Cc1c(C(=O)N2CCc3ccccc32)oc2ccc3c(c12)C(=O)CC(C)(c1ccc(Cl)cc1)O3 (centres unmarked) [FORMULA I, 11-(4-chlorophenyl)-4-(2,3-dihydro-1H-indole-1-carbonyl)-3,11-dimethyl-5,10,dioxatricyclo[7.4.0.0,2,6,]trideca-1,3,6,8-tetraen-13-one]
mRNA and protein levels of BMAL1 (BMAL1): Decreased mRNA and protein levels of BMAL1 | stability of LUC (LUC): no effect on the stability of LUC
